Earlier results in patent US20240011040A1, “SALICYLIC ACID-INDUCIBLE GENE EXPRESSION COMPOSITIONS AND SYSTEMS FOR CELLS” (UNIVERSITY OF HOUSTON SYSTEM, priority 2020, published 2024).

What was measured:
[1] = molecular target: T1, Arabidopsis thaliana (At) NPR4 (Arabidopsis thaliana, UniProt Q5ICL9); conditions: AtNPR4, high-affinity sensor of SA
T1 sequence (Q5ICL9 1-574): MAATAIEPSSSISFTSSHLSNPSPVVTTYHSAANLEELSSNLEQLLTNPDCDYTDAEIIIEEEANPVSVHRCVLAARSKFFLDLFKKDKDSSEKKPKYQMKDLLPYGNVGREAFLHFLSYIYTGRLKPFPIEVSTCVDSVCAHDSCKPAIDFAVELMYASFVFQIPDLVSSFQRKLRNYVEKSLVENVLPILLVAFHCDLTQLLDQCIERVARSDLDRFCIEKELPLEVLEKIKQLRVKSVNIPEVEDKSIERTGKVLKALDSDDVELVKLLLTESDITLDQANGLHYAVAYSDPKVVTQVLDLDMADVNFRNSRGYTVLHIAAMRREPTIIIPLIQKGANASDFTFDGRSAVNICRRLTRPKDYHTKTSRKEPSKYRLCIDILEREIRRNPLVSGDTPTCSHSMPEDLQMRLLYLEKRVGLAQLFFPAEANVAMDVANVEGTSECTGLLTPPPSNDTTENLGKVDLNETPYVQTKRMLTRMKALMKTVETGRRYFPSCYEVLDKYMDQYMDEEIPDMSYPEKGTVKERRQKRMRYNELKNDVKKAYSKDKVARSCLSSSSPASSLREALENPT

Compound	Kd [1] [nM]	half-life in blood
O=C(O)c1ccccc1O [SA, salicylic acid]	24	
EPO: glycoprotein cytokine secreted mainly by the kidney; stimulates red blood cell production		around 5 h
